Test results: ChEMBL document CHEMBL3792311, “In vitro and in vivo activity of ML302F: a thioenolate inhibitor of VIM-subfamily metallo -lactamases” (Medchemcomm, 2016)
≈ marks a conversion by molar mass, not a printed value.

Legend:
Format in all cases: functional
Klebsiella pneumoniae [1] = assay: Antibacterial activity against VIM1 carbapenemase producing multidrug-resistant Klebsiella pneumoniae GR54 clinical isolate by broth microtiter dilution method
Pseudomonas aeruginosa [2] = assay: Antibacterial activity against VIM2 carbapenemase producing multidrug-resistant Pseudomonas aeruginosa 50 clinical isolate by broth microtiter dilution method
Escherichia coli = assay: Antibacterial activity against VIM4 carbapenemase producing multidrug-resistant Escherichia coli 98 clinical isolate infected in Galleria mellonella larvae assessed as survival rate at 0.6 mg/kg measured at 96 hrs; conditions: Escherichia coli, 98, 96 h
Pseudomonas aeruginosa [3] = assay: Antibacterial activity against VIM2 carbapenemase producing multidrug-resistant Pseudomonas aeruginosa 9 clinical isolate by broth microtiter dilution method
Pseudomonas aeruginosa [4] = assay: Antibacterial activity against VIM2 carbapenemase producing multidrug-resistant Pseudomonas aeruginosa 13 clinical isolate by broth microtiter dilution method
Pseudomonas aeruginosa [5] = assay: Antibacterial activity against VIM2 carbapenemase producing multidrug-resistant Pseudomonas aeruginosa 12 clinical isolate by broth microtiter dilution method
Pseudomonas aeruginosa [6] = assay: Antibacterial activity against VIM2 carbapenemase producing multidrug-resistant Pseudomonas aeruginosa 8 clinical isolate by broth microtiter dilution method
Klebsiella pneumoniae [7] = assay: Antibacterial activity against VIM1 carbapenemase producing multidrug-resistant Klebsiella pneumoniae 177 clinical isolate by broth microtiter dilution method
Pseudomonas aeruginosa [8] = assay: Antibacterial activity against VIM2 carbapenemase producing multidrug-resistant Pseudomonas aeruginosa GR57 clinical isolate by broth microtiter dilution method
Pseudomonas aeruginosa [9] = assay: Antibacterial activity against VIM2 carbapenemase producing multidrug-resistant Pseudomonas aeruginosa GR57 clinical isolate infected in Galleria mellonella larvae assessed as survival rate at 0.6 mg/kg measured at 96 hrs; conditions: GR57, 96 h
Providencia stuartii [10] = assay: Antibacterial activity against VIM1 carbapenemase producing multidrug-resistant Providencia stuartii 70 clinical isolate by broth microtiter dilution method
Pseudomonas aeruginosa [11] = assay: Antibacterial activity against VIM2 carbapenemase producing multidrug-resistant Pseudomonas aeruginosa GR62 clinical isolate by broth microtiter dilution method
Pseudomonas aeruginosa [12] = assay: Antibacterial activity against VIM2 carbapenemase producing multidrug-resistant Pseudomonas aeruginosa 47 clinical isolate by broth microtiter dilution method
Klebsiella oxytoca [13] = assay: Antibacterial activity against VIM4 carbapenemase producing multidrug-resistant Klebsiella oxytoca 95 clinical isolate by broth microtiter dilution method
Klebsiella pneumoniae [14] = assay: Antibacterial activity against VIM4 carbapenemase producing multidrug-resistant Klebsiella pneumoniae 128 clinical isolate by broth microtiter dilution method
Klebsiella pneumoniae [15] = assay: Antibacterial activity against VIM4 carbapenemase producing multidrug-resistant Klebsiella pneumoniae 120 clinical isolate infected in Galleria mellonella larvae assessed as survival rate at 0.6 mg/kg measured at 96 hrs; conditions: Klebsiella pneumoniae, 120, 96 h
Pseudomonas aeruginosa [16] = assay: Antibacterial activity against VIM2 carbapenemase producing multidrug-resistant Pseudomonas aeruginosa GR64 clinical isolate by broth microtiter dilution method
Pseudomonas aeruginosa [17] = assay: Antibacterial activity against VIM2 carbapenemase producing multidrug-resistant Pseudomonas aeruginosa 6 clinical isolate by broth microtiter dilution method
Enterobacter cloacae = assay: Antibacterial activity against VIM4 carbapenemase producing multidrug-resistant Enterobacter cloacae 102 clinical isolate by broth microtiter dilution method
Pseudomonas aeruginosa [18] = assay: Antibacterial activity against VIM2 carbapenemase producing multidrug-resistant Pseudomonas aeruginosa 11 clinical isolate by broth microtiter dilution method
Klebsiella pneumoniae [19] = assay: Antibacterial activity against VIM4 carbapenemase producing multidrug-resistant Klebsiella pneumoniae 101 clinical isolate by broth microtiter dilution method
Pseudomonas aeruginosa [20] = assay: Antibacterial activity against VIM2 carbapenemase producing multidrug-resistant Pseudomonas aeruginosa GR58 clinical isolate by broth microtiter dilution method
Klebsiella oxytoca [21] = assay: Antibacterial activity against VIM4 carbapenemase producing multidrug-resistant Klebsiella oxytoca 126 clinical isolate by broth microtiter dilution method
Providencia stuartii [22] = assay: Antibacterial activity against VIM1 carbapenemase producing multidrug-resistant Providencia stuartii 67 clinical isolate by broth microtiter dilution method

With `C[C@@H](O)[C@H]1C(=O)N2C(C(=O)O)=C(S[C@@H]3CN[C@H](C(=O)N(C)C)C3)[C@H](C)[C@H]12` [MEROPENEM] the MIC (Klebsiella pneumoniae [1]) was 128 µg/mL (≈ 334 µM), the MIC (Pseudomonas aeruginosa [2]) was 32 µg/mL (≈ 83.4 µM) and the survival at 0.6 mg/kg (Escherichia coli) was 44%. For the same compound, the MIC (Pseudomonas aeruginosa [3]) was 128 µg/mL (≈ 334 µM), the MIC (Pseudomonas aeruginosa [4]) was 32 µg/mL (≈ 83.4 µM) and the MIC (Pseudomonas aeruginosa [5]) was 128 µg/mL (≈ 334 µM). For the same compound, the MIC (Pseudomonas aeruginosa [6]) was 128 µg/mL (≈ 334 µM), the MIC (Klebsiella pneumoniae [7]) was 1 µg/mL (≈ 2.61 µM) and the MIC (Pseudomonas aeruginosa [8]) was 32 µg/mL (≈ 83.4 µM). It also gave a survival at 0.6 mg/kg (Pseudomonas aeruginosa [9]) of 23%, an MIC (Providencia stuartii [10]) of 8 µg/mL (≈ 20.9 µM) and an MIC (Pseudomonas aeruginosa [11]) of 32 µg/mL (≈ 83.4 µM). For the same compound, the MIC (Pseudomonas aeruginosa [12]) was 32 µg/mL (≈ 83.4 µM), the MIC (Klebsiella oxytoca [13]) was 32 µg/mL (≈ 83.4 µM) and the MIC (Klebsiella pneumoniae [14]) was 4 µg/mL (≈ 10.4 µM). For the same compound, the survival at 0.6 mg/kg (Klebsiella pneumoniae [15]) was 69%, the MIC (Pseudomonas aeruginosa [16]) was 32 µg/mL (≈ 83.4 µM) and the MIC (Pseudomonas aeruginosa [17]) was 128 µg/mL (≈ 334 µM). It also gave an MIC (Enterobacter cloacae) of 32 µg/mL (≈ 83.4 µM), an MIC (Pseudomonas aeruginosa [18]) of 32 µg/mL (≈ 83.4 µM) and an MIC (Klebsiella pneumoniae [19]) of 32 µg/mL (≈ 83.4 µM). It also gave an MIC (Pseudomonas aeruginosa [20]) of 32 µg/mL (≈ 83.4 µM), an MIC (Klebsiella oxytoca [21]) of 32 µg/mL (≈ 83.4 µM) and an MIC (Providencia stuartii [22]) of 8 µg/mL (≈ 20.9 µM).
